# Laboratory results reported in US12714714B2, “Combination therapy for treating executive function disorders” (Anaka Pharmaceuticals, Inc., priority 2021, dated 2026).
# “And” between values parts separate entries of the source, which are not always exact repeats. Equal entries are not always repeated.
# Assays:
# Severe ADHD = test: Case study A: (Example 3); type: in vivo, human
# Text: (§1) The combination of lacosamide and oxcarbazepine has been administered to three additional patients with various symptoms associated with executive function disorder. The combination of lacosamide and oxcarbazepine was successful in alleviating different symptoms of executive function disorder.
# [1] = system: patients suffering from ADHD; test: Stroop test (Example 1); type: in vivo, human
# Text: (§2) Patients were monitored clinically every week, during the whole duration of the study. They were also monitored on their pedagogic condition and evolution: before any treatment, mid-term and by the end of the lacosamide monotherapy and combination treatment. In addition, the patients were monitored neuropsychologicaly through the administration of different tests, pre- and post-treatment. A basal measure of their executive capabilities was established before any treatment.
# (§3) The results of neuropsychological tests for lacosamide monotherapy and lacosamide and oxcarbazepine combination therapy were evaluated.
# GABA transaminase = GABA transaminase (Homo sapiens, UniProt P80404); details: cited from earlier work
# GABA transaminase, sequence (P80404 29-500, species assumed): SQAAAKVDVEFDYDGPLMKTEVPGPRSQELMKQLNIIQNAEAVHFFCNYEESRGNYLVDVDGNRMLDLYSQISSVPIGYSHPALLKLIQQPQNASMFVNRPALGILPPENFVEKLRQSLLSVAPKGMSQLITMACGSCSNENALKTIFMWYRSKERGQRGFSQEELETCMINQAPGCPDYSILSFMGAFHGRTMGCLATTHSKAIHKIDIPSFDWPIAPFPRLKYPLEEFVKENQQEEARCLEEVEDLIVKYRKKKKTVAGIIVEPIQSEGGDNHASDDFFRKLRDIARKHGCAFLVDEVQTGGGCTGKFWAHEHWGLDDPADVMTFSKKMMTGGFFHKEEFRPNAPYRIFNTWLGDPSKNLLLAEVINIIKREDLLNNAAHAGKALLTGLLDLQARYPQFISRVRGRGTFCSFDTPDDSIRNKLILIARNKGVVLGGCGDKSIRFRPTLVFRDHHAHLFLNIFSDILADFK
# [2] = system: voltage-gated sodium channels; details: cited from earlier work
# [3] = system: patients suffering from ADHD; test: WCST (Example 1); type: in vivo, human
# Text: as §2, §3
# [4] = system: potassium or calcium currents; details: cited from earlier work
# [5] = system: patients suffering from ADHD; test: Conners' Continuous Performance Test CPT-2 (Example 1); type: in vivo, human
# Text: as §2
# The results of neuropsychological tests for lacosamide monotherapy and lacosamide and oxcarbazepine combination therapy were evaluated. […] The other patient had similar results for monotherapy and combination treatment.
# [6] = system: patients suffering from ADHD; test: Clinical evolution under treatment, weekly clinical and pedagogic monitoring (Example 1); type: in vivo, human
# Protocol: (§4) The effects of lacosamide monotherapy were tested in three patients (two boys; and one child) suffering from ADHD over the period of 6 months. After the period of 6 months, the treatment was discontinued for 45 days. Next, the three patients were treated with a combination of lacosamide and oxcarbazepine for a period of 3 months. The results of monotherapy and combination therapy were compared.
# as §2
# The treatment was delivered twice a day and went on for at least 3 months.
# (§5) Initially, a dose of 50 mg/12 hrs of lacosamide was administered to every patient. Through the study, the dose of lacosamide was increased (by 100 mg per week) to […] for every patient, following clinical response (on attention capacity, sleep, tiredness, mood stability, comprehension and general cognitive improvement).
# (§6) Initially, a dose of 50 mg/12 hrs of lacosamide and a dose of 300 mg/12 hrs of oxcarbazepine was administered to every patient. Through the study, the dose of lacosamide was increased (by 100 mg per week) to 200 mg/12 hrs for every patient, following clinical response (attention capacity, sleep, tiredness, mood stability, comprehension and general cognitive improvement). In response to clinical presentation of all three patients, the dose of lacosamide was decreased to 100 mg/12 hrs and maintained thereafter. The dose for oxcarbazepine was increased in week 7 to 450 mg/12 hrs for every patient, maintaining the previously reached respective doses for lacosamide.
# [7] = system: patients suffering from ADHD; test: TONI-2 nonverbal reasoning test (Example 1); type: in vivo, human
# Text: as §2, §3
# [8] = system: patients suffering from ADHD; test: Determination of clinically effective dose, lacosamide monotherapy vs combination therapy (Example 1); type: in vivo, human; details: for Clinically effective dose of lacosamide: in monotherapy vs in combination therapy with oxcarbazepine
# Protocol: as §4, §2, §5
# as §6, with “In response to clinical presentation of all three patients, the dose of lacosamide was decreased to 100 mg/12 hrs and maintained thereafter.” left out
# Starting from this initial dose (50 mg/12 hs), the dose of lacosamide was adjusted to reflect clinically effective dose, based on clinical signs. Lacosamide was initially raised by 100 mg/24 hs in two takes. The highest dose of lacosamide was 400 mg/24 hs. In the combination therapy, oxcarbazepine was raised from 600 mg to 900 mg for all participants after 6 weeks, regardless of their lacosamide dosage.
# The final dosage of lacosamide and oxcarbazepine was established based on patients' clinical results for executive dysfunction and the neurophysiological symptoms (e.g. hyperactivity, enuresis, and lethargy).
# [9] = system: reuptake of norepinephrine, dopamine, and serotonin; details: cited from earlier work
# [10] = system: AMPA, kainate, NMDA, GABAA, GABAB, dopaminergic, serotonergic, adrenergic, muscarinic or cannabinoid receptors; details: cited from earlier work
# Severe autism (Level 3) = test: Case Study C: (Example 3); type: in vivo, human
# Text: as §1
# [11] = system: children who take methylphenidate; details: cited from earlier work
# [12] = patient 001, October 2020 = lacosamide monotherapy, December 2020 = combination therapy
# [13] = patient 002, October 2020 = lacosamide monotherapy, December 2020 = combination therapy
# [14] = patient 003, October 2020 = after 6 months lacosamide alone, December 2020 = after 3 months combined therapy
# [15] = patient 003, table: December 2020, combined therapy, text b168: monotherapy vs combined therapy
smiles,measurement,setting,value
Nc1nnc(-c2cccc(Cl)c2Cl)c(N)n1 [Lamotrigine],Neurophysiological and Neuropsychological symptoms,Severe ADHD,combined therapy. This was not accomplished
same,"lasting improvement in treating subject's symptoms, drugs received prior to therapy used in this study",Severe ADHD,None showed lasting improvement in treating
"COC[C@@H](NC(C)=O)C(=O)NCc1ccccc1 [lacosamide, (2R)-2-(acetylamino)-N-benzyl-3-methoxypropanamide]",Stroop-c Level,[1]; [12],1
same,"Stroop-c Nominative capacity, Severity Range",[1]; [12],43/100
same,Stroop-c/p Level,[1]; [12],1
same,"Stroop-c/p Resistance to Perseveration, Severity Range",[1]; [12],18/100
same,Stroop-p Level,[1]; [12],2
same,"Stroop-p Nominative capacity, Severity Range",[1]; [12],51 and 51/100
same,Stroop-p Actual Interpretation,"[1]; patient 001, table: December 2020, combination therapy, text b160: before vs after",Slight Impairment
same,Stroop-c Level,[1]; [13],3
same,"Stroop-c Nominative capacity, Severity Range",[1]; [13],40/100
same,Stroop-c/p Level,[1]; [13],2
same,"Stroop-c/p Resistance to Perseveration, Severity Range",[1]; [13],30/100
same,Stroop-p Level,[1]; [13],4
same,"Stroop-p Nominative capacity, Severity Range",[1]; [13],32/100
same,Stroop-c Level,[1]; [14],2
same,"Stroop-c Nominative capacity, Severity Range",[1]; [14],51/100
same,Stroop-c/p Level,[1]; [14],3
same,"Stroop-c/p Resistance to Perseveration, Severity Range",[1]; [14],21/100
same,Stroop-p Level,[1]; [14],3
same,"Stroop-p Nominative capacity, Severity Range",[1]; [14],51/100
same,inhibition of GABA transaminase,GABA transaminase,does not inhibit
same,fast inactivation of voltage-gated sodium channels,[2],without affecting
same,slow inactivation of voltage-gated sodium channels,[2],enhances
same,"WCST Cognitive flexibility, Level",[3]; [12],1
same,"WCST Cognitive flexibility, persistent errors",[3]; [12],24 persistent
same,"WCST Reasoning (Abstraction Categorization), Level",[3]; [12],2
same,"WCST Reasoning (Abstraction Categorization), categories completed",[3]; [12],3 categories
same,"WCST Cognitive flexibility, Level",[3]; [13],0
same,"WCST Cognitive flexibility, persistent errors",[3]; [13],5 persistent
same,"WCST Reasoning (Abstraction Categorization), Level",[3]; [13],0
same,"WCST Reasoning (Abstraction Categorization), categories completed",[3]; [13],8 categories
same,"WCST Cognitive flexibility, Level",[3]; [14],2
same,"WCST Cognitive flexibility, persistent errors",[3]; [14],23 persistent
same,"WCST Reasoning (Abstraction Categorization), Level",[3]; [14],2
same,"WCST Reasoning (Abstraction Categorization), categories completed",[3]; [14],4 categories
same,"WCST Cognitive flexibility, interpretation",[3]; [15],Slight
same,"WCST Reasoning (Abstraction Categorization), interpretation",[3]; [15],Slight Impairment
same,block of potassium or calcium currents,[4],does not block
same,CPT-2-c Level,[5]; [12],1
same,CPT-2-c impulsivity indicators (Severity Range),[5]; [12],No
same,CPT-2-o Level,[5]; [12],Clinical
same,"CPT-2-o Severity Range, score",[5]; [12],76.92%
same,CPT-2-o inattention indicators,[5]; [12],6
same,CPT-2-o indicators within limitations in surveillance,[5]; [12],2 indicators
same,CPT-2-o Actual Interpretation,"[5]; patient 001, table: December 2020, combination therapy, text b159: first vs second evaluation",Severe Impairment
same,CPT-2-c Level,[5]; [13],2
same,CPT-2-c impulsivity indicators (Severity Range),[5]; [13],1 impulsivity
same,CPT-2-o Level,[5]; [13],Non
same,"CPT-2-o Severity Range, score",[5]; [13],37.01%
same,CPT-2-o inattention indicators,[5]; [13],2 inattention
same,CPT-2-c Level,[5]; [14],2
same,CPT-2-c impulsivity indicators (Severity Range),[5]; [14],1 impulsivity
same,CPT-2-o Level,[5]; [14],Clinical
same,"CPT-2-o Severity Range, score",[5]; [14],50%
same,CPT-2-o inattention indicators,[5]; [14],(6 inattention
same,"mood instability (aggressive behaviour towards others, deliberately contained anger, sadness)",[6]; ADHD patients,only partially regressed
same,cognitive disabilities,[6]; Case 001,improved many cognitive disabilities
same,"dysphasia, and extreme impulsiveness",[6]; Case 001,remained unchanged
same,pedagogic evolution (Comprehensive Reading),[6]; Case 002,never obtained
same,ability to speak,[6]; Cases 002 and 003,unaffected
same,cognitive disability,[6]; Cases 002 and 003,"improved under lacosamide alone, but the degree of the disability never really disappeared"
same,hyperactivity regulation (severe hyperkinesia),[6]; the one of 3 ADHD patients with hyperkinesia,did not improve
same,enuresis episodes,[6]; the two patients that suffered from this symptom,partially stopped
same,lethargic situations,[6]; two patients with absence of energy and tense tiredness,disappeared
same,non-verbal reasoning capacity,"[7]; Case 003, after 6 months Lacosamide monotherapy vs after combined therapy",95 points
same,"TONI-2 Nonverbal Reasoning Ability, Level (CI)",[7]; [12],CI-111
same,"TONI-2 Nonverbal Reasoning Ability, Severity Range",[7]; [12],17/55
same,"TONI-2 Nonverbal Reasoning Ability, Level (CI)",[7]; [13],CI-104
same,"TONI-2 Nonverbal Reasoning Ability, Severity Range",[7]; [13],28/55
same,"TONI-2 Nonverbal Reasoning Ability, Level (CI)",[7]; [14],CI-95
same,"TONI-2 Nonverbal Reasoning Ability, Severity Range",[7]; [14],19/55
same,clinically effective dose of lacosamide in monotherapy,[8]; 2 patients,600 mg per day
same,Clinically effective dose of lacosamide,[8]; Patient 1,600 mg/day
same,Clinically effective dose of lacosamide,[8]; Patient 2,600 mg/day
same,Clinically effective dose of lacosamide,[8]; Patient 3,350 mg/day
same,clinically effective dose of lacosamide in monotherapy,[8]; one patient,350 mg
same,"modulation of the reuptake of neurotransmitters including norepinephrine, dopamine, and serotonin",[9],does not modulate
same,"effect on AMPA, kainate, NMDA, GABAA, GABAB or dopaminergic, serotonergic, adrenergic, muscarinic or cannabinoid receptors",[10],does not affect
CCCC(CCC)C(=O)O [Valproic Acid],"lasting improvement in treating subject's symptoms, drugs received prior to therapy used in this study",Severe ADHD,None showed lasting improvement in treating
"NC(=O)N1c2ccccc2CC(=O)c2ccccc21 [oxcarbazepine, 5-oxo-6H-benzo[b][1]benzazepine-11-carboxamide]",aggressive behavior and lack of interactivity with other members of the household,Severe autism (Level 3),attention. They maintained aggressive
same,delivery of the desired therapeutic result,Severe autism (Level 3),Oxcarbazepine alone was not sufficient to
same,hyperkinesia and impulsiveness,Severe autism (Level 3),Minor improvement to subject's hyper-
same,sleeping pattern,Severe autism (Level 3),instability remained in sleeping pattern
same,"way they behaved during awake moments, quality of their day's attention",Severe autism (Level 3),not approve in the way they behaved during
COC(=O)C(c1ccccc1)C1CCCCN1 (stereo not drawn) [Methylphenidate],"lasting improvement in treating subject's symptoms, drugs received prior to therapy used in this study",Severe ADHD,None showed lasting improvement in treating
same,share of children who develop symptoms of obsessive-compulsive behaviour,[11],one third
